Source: PubChem BioAssay AID330 (DTP/NCI, 2004)
Several values for one entry are separate records, joined by “and”; a condition that tells them apart may be missing. Identical values can stand only once. Inconclusive results and toxic doses are left out. Bridge positions count the residues as written; N and C are the ends. Peptide text beside a SMILES is read from it. I, II: the chains in the order shown.

Tested on: P388 leukemia ip, CD2F1 mice, survival T/C
Assay: NCI In Vivo Anticancer Drug Screen. Data for tumor model P388 Leukemia (intraperitoneal) in CD2F1 (CDF1) mice
Conditions: endpoint: median survival time, higher = longer survival
Outline: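 Mice carrying the transplanted tumor received test compound or vehicle. Survival was recorded in each group, and the value is the treated-group measurement divided by that of the vehicle-treated control group.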

[1] = dose: 50.0 mg/kg/injection, schedule: Q01DX009 (ip), vehicle: Klucel (hydroxypropylcellulose) (HPC)
[2] = dose: 100.0 mg/kg/injection, schedule: Q01DX009 (ip), vehicle: Klucel (hydroxypropylcellulose) (HPC)
[3] = dose: 200.0 mg/kg/injection, schedule: Q01DX009 (ip), vehicle: Klucel (hydroxypropylcellulose) (HPC)
[4] = dose: 50.0 mg/kg/injection, schedule: Q01DX005 (ip), vehicle: saline
[5] = dose: 100.0 mg/kg/injection, schedule: Q01DX005 (ip), vehicle: saline
[6] = dose: 50.0 mg/kg/injection, schedule: Q01DX005 (ip), vehicle: Klucel (hydroxypropylcellulose) (HPC)
[7] = dose: 100.0 mg/kg/injection, schedule: Q01DX005 (ip), vehicle: Klucel (hydroxypropylcellulose) (HPC)
[8] = dose: 200.0 mg/kg/injection, schedule: Q01DX005 (ip), vehicle: Klucel (hydroxypropylcellulose) (HPC)
[9] = dose: 12.5 mg/kg/injection, schedule: Q01DX009 (ip), vehicle: saline
[10] = dose: 25.0 mg/kg/injection, schedule: Q01DX009 (ip), vehicle: saline
[11] = dose: 50.0 mg/kg/injection, schedule: Q01DX009 (ip), vehicle: saline
[12] = dose: 6.25 mg/kg/injection, schedule: Q01DX009 (ip), vehicle: Klucel (hydroxypropylcellulose) (HPC)
[13] = dose: 12.5 mg/kg/injection, schedule: Q01DX009 (ip), vehicle: Klucel (hydroxypropylcellulose) (HPC)
[14] = dose: 25.0 mg/kg/injection, schedule: Q01DX009 (ip), vehicle: Klucel (hydroxypropylcellulose) (HPC)
[15] = dose: 50.0 mg/kg/injection, schedule: Q01DX005 (ip), vehicle: saline with Tween-80
[16] = dose: 100.0 mg/kg/injection, schedule: Q01DX005 (ip), vehicle: saline with Tween-80
[17] = dose: 200.0 mg/kg/injection, schedule: Q01DX005 (ip), vehicle: saline with Tween-80
[18] = dose: 50.0 mg/kg/injection, schedule: Q01DX009 (ip), vehicle: saline with Tween-80
[19] = dose: 100.0 mg/kg/injection, schedule: Q01DX009 (ip), vehicle: saline

Structure (SMILES): C=C(C)[C@H]1O[C@H]2CC[C@@]3(C)[C@@](O)(CC[C@H]4[C@@H]5OC(C)(C)[C@H]6C[C@@H]7C(=C)Cc8c(Cl)cc9[nH]c(c5c9c8C76O)[C@@]43C)[C@@]23O[C@H]3[C@H]1O (stereo not given in full)
- T/C (dose: 0.5 mg/kg/injection, schedule: Q01DX005 (ip), vehicle: Klucel (hydroxypropylcellulose) (HPC)): 101 % of control
- T/C (dose: 1.0 mg/kg/injection, schedule: Q01DX005 (ip), vehicle: Klucel (hydroxypropylcellulose) (HPC)): 97 % of control
- T/C (dose: 2.0 mg/kg/injection, schedule: Q01DX005 (ip), vehicle: Klucel (hydroxypropylcellulose) (HPC)): 87 % of control
- T/C (dose: 3.75 mg/kg/injection, schedule: Q01DX005 (ip), vehicle: Klucel (hydroxypropylcellulose) (HPC)): 107 % of control
- T/C (dose: 4.0 mg/kg/injection, schedule: Q01DX005 (ip), vehicle: Klucel (hydroxypropylcellulose) (HPC)): 93 % of control
- T/C (dose: 7.5 mg/kg/injection, schedule: Q01DX005 (ip), vehicle: Klucel (hydroxypropylcellulose) (HPC)): 115 % of control
- T/C (dose: 15.0 mg/kg/injection, schedule: Q01DX005 (ip), vehicle: Klucel (hydroxypropylcellulose) (HPC)): 106 % of control
- T/C (dose: 30.0 mg/kg/injection, schedule: Q01DX005 (ip), vehicle: Klucel (hydroxypropylcellulose) (HPC)): 107 % of control
- T/C (dose: 60.0 mg/kg/injection, schedule: Q01DX005 (ip), vehicle: Klucel (hydroxypropylcellulose) (HPC)): 107 % of control

Structure (SMILES): Nc1nc(N)c(C(=O)SCc2ccccc2)nc1Cl
- T/C [1]: 107 % of control
- T/C [2]: 95 % of control
- T/C [3]: 91 % of control

Structure (SMILES): Cn1c[n+](C2OC(CO)C(O)C2O)c2nc(N)[nH]c(=O)c21 (stereo not given)
- T/C [4]: 119 % of control
- T/C [5]: 105 % of control
- T/C (dose: 200.0 mg/kg/injection, schedule: Q01DX005 (ip), vehicle: saline): 115 % of control

Structure (SMILES): CC1(C)OC2C(COC(c3ccccc3)(c3ccccc3)c3ccccc3)OC(n3ccc(=O)[nH]c3=O)C2O1 (stereo not given)
- T/C [6]: 97 % of control
- T/C [7]: 89 % of control
- T/C [8]: 88 % of control

Structure (SMILES): CCC1(C)N=C(N)Nc2nc3cc(C)c(C)cc3n21 (stereo not given)
- T/C [9]: 92 % of control
- T/C [10]: 91 % of control
- T/C [11]: 92 % of control and 94 % of control

Structure (SMILES): CC(C)(C)OOC(=O)c1ccc(Cl)cc1
- T/C (dose: 100.0 mg/kg/injection, schedule: Q04DX002 (ip), vehicle: saline with Tween-80): 96 % of control
- T/C (dose: 200.0 mg/kg/injection, schedule: Q04DX002 (ip), vehicle: saline with Tween-80): 95 % of control
- T/C (dose: 400.0 mg/kg/injection, schedule: Q04DX002 (ip), vehicle: saline with Tween-80): 101 % of control

Structure (SMILES): O=C(O)/C=C/C(=O)Nc1ccc(Cl)c(Cl)c1
- T/C [12]: 105 % of control
- T/C [13]: 115 % of control
- T/C [14]: 105 % of control
- T/C (dose: 400.0 mg/kg/injection, schedule: Q01DX009 (ip), vehicle: Klucel (hydroxypropylcellulose) (HPC)): 109 % of control

Structure (SMILES): C/C1=C\C[C@@H](O)/C(C)=C/[C@H]2OC(=O)[C@H](C)[C@@H]2CC1
- T/C (dose: 8.75 mg/kg/injection, schedule: Q01DX005 (ip), vehicle: Klucel (hydroxypropylcellulose) (HPC)): 94 % of control
- T/C (dose: 17.5 mg/kg/injection, schedule: Q01DX005 (ip), vehicle: Klucel (hydroxypropylcellulose) (HPC)): 102 % of control
- T/C (dose: 35.0 mg/kg/injection, schedule: Q01DX005 (ip), vehicle: Klucel (hydroxypropylcellulose) (HPC)): 100 % of control
- T/C (dose: 70.0 mg/kg/injection, schedule: Q01DX005 (ip), vehicle: Klucel (hydroxypropylcellulose) (HPC)): 86 % of control

Structure (SMILES): CCC(/C=C/c1ccccc1)=N\NC(=O)c1ccc(Cl)cc1
- T/C (dose: 60.0 mg/kg/injection, schedule: Q01DX005 (ip), vehicle: saline with Tween-80): 101 % of control
- T/C (dose: 120.0 mg/kg/injection, schedule: Q01DX005 (ip), vehicle: saline with Tween-80): 96 % of control
- T/C (dose: 240.0 mg/kg/injection, schedule: Q01DX005 (ip), vehicle: saline with Tween-80): 105 % of control

Structure (SMILES): C=C1C(=O)OC2/C=C(\C)C(OC(C)=O)/C=C\C(C)(O)CC(OC(=O)/C(C)=C/C)C12 (stereo not given)
- T/C (dose: 10.0 mg/kg/injection, schedule: Q01DX009 (ip), vehicle: saline with Tween-80): 105 % of control
- T/C (dose: 20.0 mg/kg/injection, schedule: Q01DX009 (ip), vehicle: saline with Tween-80): 99 % of control
- T/C (dose: 40.0 mg/kg/injection, schedule: Q01DX009 (ip), vehicle: saline with Tween-80): 110 % of control
- T/C (dose: 80.0 mg/kg/injection, schedule: Q01DX009 (ip), vehicle: saline with Tween-80): 115 % of control

Structure (SMILES): CCN(CC)CCC(O)c1ccc(Cl)c2ccccc12 (stereo not given)
- T/C [4]: 106 % of control
- T/C [5]: 101 % of control

Structure (SMILES): CC(C)(C)OC(=O)NC(CCCCNC=O)C(=O)O (stereo not given)
- T/C [15]: 95 % of control
- T/C [16]: 96 % of control
- T/C [17]: 104 % of control

Structure (SMILES): O=C(O)C1=C(/C=C(/c2ccccc2)c2ccc(Cl)cc2)OCCC1
- T/C [18]: 90 % of control
- T/C (dose: 100.0 mg/kg/injection, schedule: Q01DX009 (ip), vehicle: saline with Tween-80): 94 % of control
- T/C (dose: 200.0 mg/kg/injection, schedule: Q01DX009 (ip), vehicle: saline with Tween-80): 105 % of control

Structure (SMILES): C[n+]1c(-c2cccc(-c3ccccc3)c2)c2cc([N+](=O)[O-])ccc2c2ccccc21
- T/C (dose: 1.56 mg/kg/injection, schedule: Q01DX009 (ip), vehicle: Klucel (hydroxypropylcellulose) (HPC)): 103 % of control
- T/C (dose: 3.13 mg/kg/injection, schedule: Q01DX009 (ip), vehicle: Klucel (hydroxypropylcellulose) (HPC)): 103 % of control
- T/C [12]: 106 % of control
- T/C [13]: 111 % of control
- T/C [14]: 109 % of control

Structure (SMILES): CC/C(=N\NS(=O)(=O)c1ccc(C)cc1)c1cccc(C#N)c1
- T/C [11]: 106 % of control
- T/C [19]: 96 % of control
- T/C (dose: 200.0 mg/kg/injection, schedule: Q01DX009 (ip), vehicle: saline): 99 % of control

Structure (SMILES): CC(C)C(NC(=O)C(N)CSSCC(N)C(=O)NC(C(=O)O)C(C)C)C(=O)O (stereo not drawn) (I: H-Cys-Val-OH / II: H-Cys-Val-OH; disulfide I:1-II:1; configuration not given here)
- T/C [6]: 103 % of control
- T/C [7]: 103 % of control
- T/C [8]: 101 % of control

Structure (SMILES): O=C(O)CSc1ccc2c3c(cccc13)C(=O)c1ccccc1-2
- T/C (dose: 6.25 mg/kg/injection, schedule: Q01DX009 (ip), vehicle: saline): 100 % of control
- T/C [9]: 99 % of control and 111 % of control
- T/C [10]: 111 % of control
- T/C [11]: 108 % of control
- T/C [19]: 104 % of control

Structure (SMILES): COCC1(CCC(C)=C(C)C)Nc2ccc(C(=O)O)cc2CC1Cl (stereo not given)
- T/C (dose: 1.25 mg/kg/injection, schedule: Q01DX005 (ip), vehicle: Klucel (hydroxypropylcellulose) (HPC)): 98 % of control
- T/C (dose: 2.5 mg/kg/injection, schedule: Q01DX005 (ip), vehicle: Klucel (hydroxypropylcellulose) (HPC)): 101 % of control

Structure (SMILES): C=C1C(=O)OC2/C=C(\C)CC/C=C(/C=O)C(OC(=O)C(C)C)C(O)C12 (stereo not given)
- T/C (dose: 8.0 mg/kg/injection, schedule: Q01DX009 (ip), vehicle: saline + alcohol): 97 % of control

Structure (SMILES): O=C(C=C(C(F)(F)F)C(F)(F)F)c1ccc([N+](=O)[O-])cc1
- T/C (dose: 3.13 mg/kg/injection, schedule: Q04DX003 (ip), vehicle: other): 100 % of control
- T/C (dose: 6.25 mg/kg/injection, schedule: Q04DX003 (ip), vehicle: other): 109 % of control
- T/C (dose: 12.5 mg/kg/injection, schedule: Q04DX003 (ip), vehicle: other): 118 % of control

Structure (SMILES): O=NN(CCCl)C(=O)N[C@H]1CCCC[C@@H]1Cl
- T/C (dose: 25.0 mg/kg/injection, schedule: Q01DX009 (ip), vehicle: saline with Tween-80): 250 % of control
- T/C (dose: 33.0 mg/kg/injection, schedule: Q04DX003 (ip), vehicle: saline with Tween-80): 200 % of control
- T/C [18]: 109 % of control
- T/C (dose: 50.0 mg/kg/injection, schedule: Q04DX003 (ip), vehicle: saline with Tween-80): 300 % of control
- T/C (dose: 100.0 mg/kg/injection, schedule: Q04DX003 (ip), vehicle: saline with Tween-80): 90 % of control

Structure (SMILES): COc1ccc2nc(N/N=C(/c3ccccc3)c3ccccn3)cc(C)c2c1
- T/C [15]: 107 % of control
- T/C [16]: 100 % of control
- T/C [17]: 100 % of control

Structure (SMILES): CCCCC1C(C#N)C(=O)NC(=O)C1C#N (stereo not given)
- T/C [1]: 100 % of control
- T/C [2]: 95 % of control
- T/C [3]: 99 % of control
